Measurements as given in patent US10246456B2, “IRAK4 inhibiting agents” (BIOGEN MA INC., priority 2014, dated 2019).

Molecular target: IRAK4 (Homo sapiens (Human), UniProt Q9NWZ3)
Experiment: IRAK-4 AlphaScreen biochemical kinase assay
Conditions: 1 nM IRAK4, 1 mM ATP, 3.5 h at RT
In short: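 AlphaScreen read-out: streptavidin beads bind the biotinylated peptide and protein A beads bind the anti-phosphothreonine antibody, so energy transfer reports phosphorylation of the peptide. The kinase is human IRAK-4.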

Sequence of IRAK4 (Q9NWZ3 whole entry, species assumed): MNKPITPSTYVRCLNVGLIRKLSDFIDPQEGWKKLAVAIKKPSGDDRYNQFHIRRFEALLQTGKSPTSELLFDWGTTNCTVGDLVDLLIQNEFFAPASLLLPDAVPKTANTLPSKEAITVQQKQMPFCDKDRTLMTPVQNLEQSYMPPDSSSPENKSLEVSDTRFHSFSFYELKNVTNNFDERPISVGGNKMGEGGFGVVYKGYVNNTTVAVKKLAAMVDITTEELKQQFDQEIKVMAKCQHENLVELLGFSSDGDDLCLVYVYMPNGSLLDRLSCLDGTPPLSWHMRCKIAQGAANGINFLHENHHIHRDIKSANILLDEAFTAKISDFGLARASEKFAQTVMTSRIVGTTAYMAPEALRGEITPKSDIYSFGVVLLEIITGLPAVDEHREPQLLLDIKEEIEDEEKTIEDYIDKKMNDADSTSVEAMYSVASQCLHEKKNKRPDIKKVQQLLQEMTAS

`C[C@H](N)c1cccc(-c2cc(-c3csc(C(F)(F)F)n3)c3cnn(-c4cccc(CO)n4)c3c2)n1` [Example 382, (S)-(6-(6-(6-(1-aminoethyl)pyridin-2-yl)-4-(2-(trifluoromethyl)thiazol-4-yl)-1H-indazol-1-yl)pyridin-2-yl)methanol] and `CCOc1cc(-c2cccc(C(C)N)n2)cc2c1cnn2-c1cccc(C)n1` (stereo not drawn) [Example 245, 1-(6-(4-ethoxy-1-(6-methylpyridin-2-yl)-1H-indazol-6-yl)pyridin-2-yl)ethanamine] cannot be ordered by IC50: under 0.1 µM for the first, under 0.1 µM for the second.

`CCC[C@H](N)c1cccc(-c2cc(Cl)c3cnn(-c4nccc(C(F)F)n4)c3c2)n1` [Example 570, (S)-1-(6-(4-chloro-1-(4-(difluoromethyl)pyrimidin-2-yl)-1H-indazol-6-yl)pyridin-2-yl)butan-1-amine] and `CCC[C@H](N)c1cccc(-c2cc(C3CCCO3)c3cnn(-c4cccc(CO)n4)c3c2)n1` (stereo partly drawn) [Example 477, (6-(6-(6-((S)-1-aminobutyl)pyridin-2-yl)-4-(tetrahydrofuran-2-yl)-1H-indazol-1-yl)pyridin-2-yl)methanol] cannot be ordered by IC50: under 0.1 µM for the first, under 0.1 µM for the second.

`CC[C@H](N)c1cccc(-c2ccc3cnn(-c4cccc(CO)n4)c3c2)n1` [Example 318, (S)-(6-(6-(6-(1-aminopropyl)pyridin-2-yl)-1H-indazol-1-yl)pyridin-2-yl)methanol] and `CCC(N)c1cccc(-c2ccc3cnn(-c4cccc(CO)n4)c3c2)n1` (stereo not drawn) [Example 294, (6-(6-(6-(1-aminopropyl)pyridin-2-yl)-1H-indazol-1-yl)pyridin-2-yl)methanol] cannot be ordered by IC50: under 0.1 µM for the first, under 0.1 µM for the second.

Compared with `CC(N)c1cccc(-c2cc(F)c3cnc(-c4cccc(C(F)(F)F)n4)n3c2)n1` (stereo not drawn) [Example 317, 1-(6-(8-fluoro-3-(6-(trifluoromethyl)pyridin-2-yl)imidazo[1,5-a]pyridin-6-yl)pyridin-2-yl)ethanamine], `Cc1cccc(-n2ncc3ccc(-c4cccc(C(O)C(F)(F)F)n4)cc32)n1` (stereo not drawn) [Example 244, 2,2,2-trifluoro-1-(6-(1-(6-methylpyridin-2-yl)-1H-indazol-6-yl)pyridin-2-yl)ethanol] is higher in IC50: under 0.1 µM for the first, 0.1 to 1 µM for the second. The first is the more potent here.

`COCCOc1cc(-c2cccc(C3(N)CCC3)n2)cc2c1cnn2-c1cncc(CO)n1` [Example 468, (6-(6-(6-(1-aminocyclobutyl)pyridin-2-yl)-4-(2-methoxyethoxy)-1H-indazol-1-yl)pyrazin-2-yl)methanol] and `CCC[C@H](N)c1cccc(-c2cc([C@@H]3CC[C@@H](C)O3)c3cnn(-c4cccc(CO)n4)c3c2)n1` [Example 479, (6-(6-(6-((S)-1-aminobutyl)pyridin-2-yl)-4-((2S,5R)-5-methyltetrahydrofuran-2-yl)-1H-indazol-1-yl)pyridin-2-yl)methanol] cannot be ordered by IC50: under 0.1 µM for the first, under 0.1 µM for the second.

`C[C@@H](N)c1ccnc(-c2ccc3cnn(-c4cccc(CO)n4)c3c2)n1` [Example 412, (R)-(6-(6-(4-(1-aminoethyl)pyrimidin-2-yl)-1H-indazol-1-yl)pyridin-2-yl)methanol] and `COC(=O)c1nc(-c2ccc3cnn(-c4cccc(C)n4)c3c2)ccc1N` [Example 243, methyl 3-amino-6-(1-(6-methylpyridin-2-yl)-1H-indazol-6-yl)picolinate] fall in the same range of IC50: 1 to 10 µM for the first, 1 to 10 µM for the second.

First: Cc1cccc(-n2ncc3c(C4CC4)cc(-c4cccc(C(C)N)n4)cc32)n1 (stereo not drawn) [Example 107, 1-(6-(4-cyclopropyl-1-(6-methylpyridin-2-yl)-1H-indazol-6-yl)pyridin-2-yl)ethanamine]
Second: CN1CCCC1c1cccc(-c2ccc3cnn(-c4cccc(C(F)(F)F)n4)c3c2)n1 (stereo not drawn) [Example 98, 6-(6-(1-methylpyrrolidin-2-yl)pyridin-2-yl)-1-(6-(trifluoromethyl)pyridin-2-yl)-1H-indazole]
The IC50 of the first is lower: 0.1 to 1 µM for the first, 1 to 10 µM for the second.

Molecule `NC1CCCc2ccc(-c3ccc4cnn(-c5cccc(C(F)(F)F)n5)c4c3)nc21` (stereo not drawn) [Example 63, 2-(1-(6-(trifluoromethyl)pyridin-2-yl)-1H-indazol-6-yl)-5,6,7,8-tetrahydroquinolin-8-amine] has an IC50 of under 0.1 µM.
